Reference: patent EP0074411B1, “ASCORBIC ACID DERIVATIVES” (SANTEN PHARMACEUTICAL CO., LTD., priority 1981, dated 1982)

System: ddY-SPF strain male mouse
Assay: Acute toxicity test
Assay type: in vivo
Settings: ddY-SPF strain male mouse (weight: 25 to 30 g); administered orally as 0.5% tragacanth suspension
Experimental: Acute toxicity test • Acute toxicity of 3,6-0,0' - dipivaloyl - L - ascorbic acid of this invention is shown below. • Animal: ddY-SPF strain male mouse (weight: 25 to 30 g) • Method of administration: The compound is administered orally as 0.5% tragacanth suspension. • Acute toxicity: LDso 5000 mg/kg.

SMILES: CC(C)(C)C(=O)OC[C@H](O)[C@H]1OC(=O)C(O)=C1OC(=O)C(C)(C)C [3,6-0,0'-Dipivaloyl-L-ascorbic acid]
- Acute toxicity: LDso: 5000 mg/kg
